Measurements published in patent publication US20240424175A1, “ANTICOAGULANT COMPOUNDS COMPRISING CHELATING AGENTS AND CATIONIC ANTI-COAGULATION ENHANCERS AND METHODS AND DEVICES FOR THEIR USE” (Elixir Medical Corporation, priority 2021, published 2024).

Assays:
[1] = test system: porcine coronary artery model; experiment: Late lumen loss (LLL) by follow up angiography in porcine coronary artery model (Example 16); format: in vivo; conditions: 14 mm stents, n = 3; smaller is better; bare metal control stent 0.17 ± 0.22
[2] = test system: porcine coronary artery model; experiment: Fibrin score, histopathology of stented arteries in porcine coronary artery model (Examples 16, 17); format: in vivo; conditions: 14 mm stents, n = 3; score 0 to 3, smaller is better; bare metal control stent 1.02 ± 0.35
Method: The drug eluting stent systems containing different anticoagulants prepared as described in Example 11 were evaluated at 3 hours, 6 hours, 1 day, 3 days, 6 days, 7 days, or 28 days following implantation in a porcine coronary artery model.
After induction of anesthesia, the left or right femoral artery was accessed using standard techniques and an arterial sheath was introduced and advanced into the artery. Vessel angiography was performed under fluoroscopic guidance, a 7 Fr, guide catheter was inserted through the sheath and advanced to the appropriate location where intracoronary nitroglycerin was administered. An appropriate implantation segment of coronary artery was randomly selected and a 0.014″ guidewire inserted. Quantitative Coronary Angiography (QCA) was performed to document the results. The appropriately size stent was advanced to the deployment site. The balloon was inflated at a steady rate to a pressure sufficient to achieve a balloon to artery ratio of approximately 1.1 to 1.0.
Stented portions of coronary arteries were embedded in methyl methacrylate (MMA), then divided into a target of at least three blocks of approximately similar lengths for histology evaluation. Quantitative histopathological evaluation of stented artery sections was then performed and scored as indicated. For Fibrin formation, scores ranged from 0 to 3, with a score of 0 indicating absent or rare minimal spotting around struts of the stent, a score of 1 indicating the presence of fibrin in small amounts localized only around the struts, a score of 2 indicating the moderately abundant or denser presence of fibrin around and extending beyond the struts, and a score of 3 indicating the presence of abundant and dense fibrin and/or bridging of the fibrin between the struts. The mean score was calculated and reported. The mean of each section was then averaged to provide a mean fibrin score per stent. The smaller the fibrin score, the better efficacy.

[3] = pH of 1 mg/ml EDTA or analogue in water or phosphate buffer; format: physicochemical
fresh pig blood = experiment: Activated clotting time (ACT) of EDTA or analogues in fresh pig blood (Example 3); format: biochemical; conditions: for Clotting time: blood control 154
Method: The ACT measurements were made in fresh pig blood. 1.0 ml of fresh pig blood was added to a test tube containing an activator (Hemochron@Celite@ ACT tubes, Lot F8FTE026 from Accriva Diagnostics, Inc.). A target amount of drug solution was then added into the test tube. The test tube was gently swirled so that the blood and drug was well-mixed. 0.1 ml of 0.3M calcium chloride was then added. The tube was gently shaken before being inserted into the Hemochron Response detector. The ACT read out was recorded and reported. The ACT of the control blood in the absence of any drug as first determined to establish a baseline.

[4] = test system: Human Aortic SMC (HAoSMC, ATCC, PCS-100-012); experiment: HAoSMC cell proliferation assay (CellTiter Aqueous, 96-well); format: cell-based; conditions: drug alone, various concentrations; 72 hours; FIGS. 1D-1E
Method: Cell proliferation assay was done in 96-well format. Low passage cells were trypsinized and seeded in 96 well plates at a density of ˜4000 cells/well. The cells are allowed to attach overnight in a CO2 incubator. Next day, the medium was removed and replaced with fresh complete medium containing various concentrations of the test compounds. The final concentration of vehicle (DMSO) in the test medium was 0.1%. After adding test compounds, the cells were incubated for 72 hours. Following this period, the medium was removed and then added fresh medium (100 μl) containing CellTiter Aqueous (1× concentration final) to the wells and incubated for 2 hours in the CO2 incubator. At the end of incubation measured fluorescence with a plate-reader. Controlled incubations with untreated cells and blank incubations containing only medium were included and tested similarly. Based on the cell viability assay the percentage inhibition of the cell proliferation was determined at the different concentrations of the drug tested.
Following the cell proliferation assay as indicated earlier, the percent cell proliferation inhibition was determined, and the assay results plotted to determine the IC50.

citrated sheep blood [5] = experiment: Activated clotting time (ACT) in calcium-reconstituted citrated sheep blood, Hemochron Response (Example 2); format: biochemical; conditions: individual drug at 0.6 ng/mg; FIG. 2C
Method: The activated clotting time (ACT) evaluation of anticoagulants was performed in calcium-reconstituted sheep blood and recorded employing the Hemochron® Response device. […] A target amount of drug solution was then added into the test tube. […] The tube was gently shaken before being inserted into the Hemochron Response detector. The ACT read out was recorded and reported. The ACT of the control blood in the absence of any drug as first determined to establish a baseline. Then ACT was determined in the presence of different concentrations of the drug as a single component. Selected drug combinations were then tested to evaluate for potential synergy in action between the two drugs.

citrated sheep blood [6] = experiment: Activated clotting time (ACT) of EDTA or other anti-coagulant compounds in citrated sheep blood (Example 4); format: biochemical
Method: The activated clotting time (ACT) evaluation of anticoagulants was performed in Calcium-reconstituted sheep blood and recorded employing the Hemochron® Response device. […] A target amount of EDTA or other anti-coagulant compounds solution was then added into the test tube. […] The tube was gently shaken before being inserted into the Hemochron Response detector. The ACT read out was recorded and reported.

[7] = test system: Tissue factor generated antiplatelet; conditions: cited from earlier work; for IC50 for Tissue factor generated antiplatelet: expressed in ng/mg
[8] = In vivo drug release, drug remaining on stent and tissue drug concentration of SS7-SS17 stents (Tables 12A-12D); conditions: 28 D following implantation
Excerpt: The stented artery was cut longitudinally with surgical scissors. The stents were separated from the tissue.

[9] = 1 mg/ml in 0.01M pH 7.4 phosphate buffer, 21.8-22.3 °C
[10] = final drug concentration 200 ng/mg
[11] = final concentration 67 ng/mg (66.7 μg/ml)
[12] = final concentration 100 ng/mg (100 μg/ml)
[13] = final concentration […] (133.3 μg/ml)
[14] = final concentration […] (166.7 μg/ml)
[15] = final drug concentration 75 ng/mg
[16] = final drug concentration 100 ng/mg
[17] = final drug concentration 150 ng/mg
[18] = final drug concentration 250 ng/mg
[19] = final drug concentration 300 ng/mg
[20] = final drug concentration 500 ng/mg

In the case of Dalteparin, the “LLL at day 7” value [1] is reported as “not effective at inhibiting smooth muscle cell proliferation” and the “Fibrin score at day 7” value [2] is reported as “not effective at inhibiting fibrin formation”.

Compound `O=C([O-])CN(CCN(CC(=O)O)CC(=O)O)CC(=O)[O-].[K+].[K+]` [EDTA dipotasium] has a pH [3, 9] of 6.93 and a pH ([3]; 1 mg/ml in d-water, 21.8-22 °C) of 6.25.

In the case of `O=C(O)C(S)C(S)C(=O)O` (stereo not shown) [Dimercaptosuccinic acid(DMSA), dimercaptosuccinic acid], the “Increase in clotting time compared to control” value (from here on “Increase in clotting time”) (fresh pig blood; [10]) is reported as -3 s and the “Clotting time” value (fresh pig blood; [10]) is reported as 151 s.

In the case of `COc1ccc(-n2nc(C(N)=O)c3c2C(=O)N(c2ccc(N4CCCCC4=O)cc2)CC3)cc1` [Apixaban], the “inhibition of HAoSMC proliferation” value [4] is reported as “small to no inhibition” and the ACT (citrated sheep blood [5]) is reported as 522.

With `CCCCCCCCCCCCCC[N+](C)(C)Cc1ccccc1.[Cl-]` [Benzyldimethyltetradecylammonium chloride] the “Clotting time” value (citrated sheep blood [6]; [11]) was 316 s, the “Increase in clotting time” value (citrated sheep blood [6]; [11]) was 114 s and the “Clotting time” value (citrated sheep blood [6]; [12]) was 421 s. The “Increase in clotting time” value (citrated sheep blood [6]; [12]) was 219 s, the “Clotting time” value (citrated sheep blood [6]; [13]) was 983 s and the “Increase in clotting time” value (citrated sheep blood [6]; [13]) was 781 s. The “Clotting time” value (citrated sheep blood [6]; [14]) was 1370 s and the “Increase in clotting time” value (citrated sheep blood [6]; [14]) was 1168 s.

In the case of `O=C(O)CN(CCN(CC(=O)O)CC(=O)O)CC(=O)O` [EDTA, ethylenediaminetetraacetic acid], the “Increase in clotting time” value (fresh pig blood; [15]) is reported as 25 s, the “Clotting time” value (fresh pig blood; [15]) is reported as 179 s and the “Increase in clotting time” value (fresh pig blood; [16]) is reported as 93 s. The “Clotting time” value (fresh pig blood; [16]) was 247 s, the “Increase in clotting time” value (fresh pig blood; [17]) was 121 s and the “Clotting time” value (fresh pig blood; [17]) was 275 s. For the same compound, the “Increase in clotting time” value (fresh pig blood; [10]) was >346 s.

In the case of `O=C([O-])CN(CCN(CC(=O)[O-])CC(=O)[O-])CC(=O)[O-].[Na+].[Na+].[Na+].[Na+]` [EDTA•4Na•xH2O, tetrasodium edetate], the “Increase in clotting time” value (fresh pig blood; [16]) is reported as 50 s, the “Clotting time” value (fresh pig blood; [16]) is reported as 204 s and the “Increase in clotting time” value (fresh pig blood; [10]) is reported as 121 s. The “Clotting time” value (fresh pig blood; [10]) was 275 s, the “Increase in clotting time” value (fresh pig blood; [18]) was 175 s and the “Clotting time” value (fresh pig blood; [18]) was 329 s. The “Increase in clotting time” value (fresh pig blood; [19]) was >346 s, the “Clotting time” value (fresh pig blood; [19]) was >500 s and the “Clotting time (sec)” value (fresh pig blood; final drug concentration 300 ng/mg, blood control 154, listed as EDTA tetra sodium salt) was “same trend”. For the same compound, the pH [3, 9] was 8.27 and the pH ([3]; 1 mg/ml in d-water, 21.8-22 °C) was 9.61.

Compound `O=C([O-])CN(CCN(CC(=O)[O-])CC(=O)O)CC(=O)[O-].[Na+].[Na+].[Na+]` [EDTA tri sodium, trisodium edetate] has a pH [3, 9] of 7.77 and a pH ([3]; 1 mg/ml in d-water, 21.8-22 °C) of 9.21.

For `O=C(NC[C@H]1CN(c2ccc(N3CCOCC3=O)cc2)C(=O)O1)c1ccc(Cl)s1` [Rivaroxaban], the “LLL at day 7” value [1] is listed as “not effective at inhibiting smooth muscle cell proliferation”, the IC50 [7] is listed as 0.312 µM and the “IC50 for Tissue factor generated antiplatelet” value [7] is listed as 0.136 ng/mg. For the same compound, the “Fibrin score at day 7” value [2] was “effective at inhibiting fibrin formation”.

With `CC(=O)OCOC(=O)CN(CCN(CC(=O)OCOC(C)=O)CC(=O)OCOC(C)=O)CC(=O)OCOC(C)=O` [EDTA tetra acetoxymethyl ester, tetra acetoxymethyl ester EDTA] the “Increase in clotting time” value (fresh pig blood; [20]) was 4 s and the “Clotting time” value (fresh pig blood; [20]) was 158 s.

For `O=C([O-])CN(CCN(CC(=O)[O-])CC(=O)O)CC(=O)O.[Na+].[Na+]` [EDTA•2Na•2H2O, disodium edetate], the “Increase in clotting time” value (fresh pig blood; [16]) was 37 s, the “Clotting time” value (fresh pig blood; [16]) was 191 s and the “Increase in clotting time” value (fresh pig blood; [10]) was 110 s. The “Clotting time” value (fresh pig blood; [10]) was 264 s, the “Increase in clotting time” value (fresh pig blood; [19]) was 220 s and the “Clotting time” value (fresh pig blood; [19]) was 374 s. For the same compound, the “Clotting time (sec)” value (fresh pig blood; final drug concentration 300 ng/mg, blood control 154, listed as EDTA disodium salt) was “same trend”, the pH [3, 9] was 6.92 and the pH ([3]; 1 mg/ml in d-water, 21.8-22 °C) was 6.42.

With `CC1CNc2c(cccc2S(=O)(=O)N[C@@H](CCCNC(=N)N)C(=O)N2CC[C@@H](C)C[C@@H]2C(=O)O)C1` (stereo partly shown) [Argatroban] the “Tissue drug concentration (ng/mg) in the stented segment tissue, Argatroban” value [8] was “about 1.69 ng/mg”, the “LLL at day 7” value [1] was “not effective at inhibiting smooth muscle cell proliferation” and the “inhibition of HAoSMC proliferation” value [4] was “small to no inhibition”. For the same compound, the IC50 [7] was 0.079 µM, the “IC50 for Tissue factor generated antiplatelet” value [7] was 0.04 ng/mg and the ACT (citrated sheep blood [5]) was 301. For the same compound, the “Fibrin score at day 7” value [2] was “not effective at inhibiting fibrin formation”.
